Results on three compounds are retold here after US9526707B2, “Methods for treating or preventing neuroinflammation or autoimmune diseases” (priority 2007, dated 2016).

“Also recorded” adds a separate entry of the source. Counter-ions that a name gives are not always drawn.

One data set concerns activated T-cells. The experiment in a line: Secretion of inflammatory cytokines by activated T-Cells in vitro. In kind it is cell-based. The text has this: The purpose of this example was to determine whether Didox treatment of T-Cells in vitro produced similar data as was found in vivo using the EAE model.
For data set [1], the system named is T-cells in splenocytes from C57BL/6 mice. Description: T-cell proliferation of CD3/CD28 stimulated splenocytes (BrdU). Format: cell-based, mouse. The following applies: 48 hours with compound, b156: at 100 μM. The procedure:
A series of in vitro experiments were conducted to ascertain the effect of Didox on immune function. A mixed splenocyte preparation was divided into two portions, one was stimulated with CD3 and CD28 to specifically activate T-cells while the other served as a control. The splenocytes were isolated from female C57BL/6 mice (6-8 weeks old) and the splenocytes were incubated for 24 hours with CD3/CD28 coated wells, after which Didox was added at varying concentrations. The cells were then incubated for an additional 48 hours. Each well was labeled with BrdU for the last 24 hours and the wells analyzed according to the manufacturer's instructions (Roche-Cell Proliferation Chemiluminescent assay kit). FIG. 7 depicts the results of these experiments. The solid black bars represent un-stimulated splenocytes while the white bars the effect of varying concentrations of Didox on the amount of T-Cells present.

A further data set deals with mouse cytokines in serum. Description: Serum cytokine levels in EAE mice, BioPlex multiplexable bead assay. Format: in vivo. The protocol:
The effect of Didox on cytokine levels was tested. As before, two groups were assembled, one treated with Didox while the other group served as a control and only received saline injections. […] EAE was initiated in all animals depicted at the same time and in an identical manner. All animals were of the same experimental time point at the time of serum collection for cytokine analysis. The Didox treated group experienced a decrease of two points in the EAE clinical score. The analysis of cytokine levels was performed by utilizing a BioPlex® multiplexable bead assay method that simultaneously quantitates mouse cytokines in diverse matrices. In this example the assay was carried out on serum derived from mice of the two groups (Didox and saline treated) at day 12 post MOG induced EAE. Blood was obtained by cardiac aspiration from mice that had been euthanized by CO2. Serum was obtained from clotted blood after centrifugation and stored at […] until assayed. For analysis the serum was diluted and analyzed with the Bio-Plex® assay system. The system utilized beads that are internally labeled with two fluorescent dyes (one for identification of the bead and one for covalent attachment of ligands (or biomolecules). Once an antibody was conjugated to the bead a sample of serum was added and followed by a reporter antibody that is often biotinylated. Following incubation with biotinylated reporter antibody, strepavidin/phycoerythrin was added to make detection possible. The system can profile up to 23 mouse cytokines. Table B indicates the amount of cytokine present (pg/mL) in the serum.

In data set [2] the test system is Experimental Autoimmune Encephalomyelitis (EAE) in C57BL/6 mice. Description: EAE model, treatment started at day 16 after MOG booster (established symptoms). Format: in vivo, mouse. The conditions noted are these: 250 mg/kg intraperitoneally, started 16 days after MOG35-55 booster. The text has this:
One method of showing the efficacy of the disclosed compounds for the treatment of various conditions associated with multiple sclerosis (MS) is its ability to inhibit effects of Experimental Autoimmune Encephalomyelitis (EAE) in laboratory animals. EAE is an animal model for MS, which entails inducing a T-cell-mediated autoimmune disease against myelin basic protein in certain susceptible mammalian species. The EAE model is an appropriate method for studying the inflammation of the brain and spinal cord associated with MS (see Bolton, C. Mult. Scler. 1995; 1(3); 143-9). […] The symptoms that are observed in animals vary from mild gait disturbances and tail atony to complete paralysis and death. These clinical manifestations are given a clinical score ranging from 0 to 5. In the present situation, the scores were based on the following criteria: clinical score 0, no signs; 1.0 limp tail; 2.0 limptail with loss of righting; 3.0 paralysis of single hind limb; 4.0 paralysis of both hind limbs; 5.0 death. Weight loss typically occurs. In animals that survive, spontaneous recovery occurs, accompanied by variable recovery of most motor function. Depending on the species, allergen, and methodology used, animals tested by the EAE model may experience a single (acute EAE) or several (chronic relapsing EAE) attacks. […]

For data set [3] the test system is unchanged. Description: Experimental Autoimmune Encephalomyelitis (EAE) model, treatment started two days prior to MOG booster. Format: in vivo, mouse. The following applies: for effect on EAE clinical symptoms (in words): treated versus control animals, FIG. 1, 3, 4, 5. The text has this: One method of showing the efficacy of the disclosed compounds for the treatment of various conditions associated with multiple sclerosis (MS) is its ability to inhibit effects of Experimental Autoimmune Encephalomyelitis (EAE) in laboratory animals. EAE is an animal model for MS, which entails inducing a T-cell-mediated autoimmune disease against myelin basic protein in certain susceptible mammalian species. The EAE model is an appropriate method for studying the inflammation of the brain and spinal cord associated with MS (see Bolton, C. Mult. Scler. 1995; 1(3); 143-9). […] The symptoms that are observed in animals vary from mild gait disturbances and tail atony to complete paralysis and death. These clinical manifestations are given a clinical score ranging from 0 to 5. In the present situation, the scores were based on the following criteria: clinical score 0, no signs; 1.0 limp tail; 2.0 limptail with loss of righting; 3.0 paralysis of single hind limb; 4.0 paralysis of both hind limbs; 5.0 death. Weight loss typically occurs. In animals that survive, spontaneous recovery occurs, accompanied by variable recovery of most motor function. Depending on the species, allergen, and methodology used, animals tested by the EAE model may experience a single (acute EAE) or several (chronic relapsing EAE) attacks.
Experimental autoimmune encephalomyelitis was induced in C57BL/6 mice using the following protocol. Female C57BL/6 mice (6-8 weeks old, N=24) purchased from Jackson Labs, were allowed to acclimate for one week prior to EAE induction. EAE was induced using myelin oligodendrocyte glycoprotein peptide 35-55 (MOG35-55, MEVGWYRSPFSRVVHL-YRNGK). The MOG35-55 injection with Freund's adjuvant was administered subcutaneously adjacent to the hind leg. At the same time, the animals received an injection of pertussis toxin (200 ng in 200 μL phosphate buffered saline (PBS), intraperitoneally), and a second pertussis toxin injection two days later. Mice were given a booster injection of MOG35-55 at day No. 7. Two or three days after the second MOG booster injection, some animals begin to show signs of EAE. The mice are monitored daily using the clinical scoring system described above.
In addition, Didox delayed the onset of the disease in the minority of animals in which it occurred in the Didox treatment group, 7.3 days versus 4.4 days for the control group. […] For example, at the plateau of the clinical condition on day 12 for both the Didox and saline (control) group, represented by the open squares ? the mean clinical score was only 0.45 for the Didox treated cohort compared to a score of 1.9 for the control group. […]

Another data set deals with EAE mice. Description: EAE model, treatment started when mice had reached clinical stage 2 or more (clinical score). Format: in vivo, mouse. The conditions noted are these: treatment begun at clinical stage 2 or more.
Data set [4] deals with activated microglia isolated from rat brain. The experiment in a line: Nitrite production by LPS-activated microglia. Format: cell-based. The text has this: To further evaluate the beneficial effect of Didox on brain tissue, we analyzed the ability of Didox to attenuate the production of nitrite by activated microglia, which are major contributors to the inflammatory status of EAE mice. Microglia were isolated from rat brain and activated with lipopolysaccharide (LPS) in the presence or absence of increasing concentrations of Didox. […] This observation, together with the attenuation of the T-cell inflammatory response would both contribute to the biological activity of Didox to reduce the severity of EAE.

Setting [5] is: 48 hours treatment of activated T-cells, even at 5 μM.
[6] abbreviates: serum, treated versus saline treated EAE mice.
Setting [7] is: clinical score 0 to 5, treated from day -2 before MOG booster.

In the case of `NC(=NO)c1ccc(O)c(O)c1` (as salt: hydrochloride) [Example I, 3,4-dihydroxybenzamidoxime], the melting point (as a rule, the temperature, or range, at which the solid turns liquid) was 193 °C (dec.).
As for `O=C(NO)c1ccc(O)c(O)c1` [Didox, N,3,4-trihydroxybenzamide], in the data set on activated T-cells (24 hours treatment), the “secretion of IFNγ” value was “does not reduce the levels of these cytokines to background; also recorded: reduced to less than half the level secreted by the untreated activated T-cells” and the “secretion of IL-17” value is “does not reduce the levels of these cytokines to background”. In addition, in the data set on activated T-cells (setting [5]), the “secretion of IFNγ” value is recorded as “down to baseline levels” and the “secretion of IL-17” value is “down to baseline levels”. Besides, the “level of T-Cell proliferation” value in data set [1] is “reduces the level of T-cells to the amount present in un-stimulated cells; also recorded: reduced to that for un-stimulated cells”. In the data set on mouse cytokines in serum (day 12 post MOG induced EAE, control 0 ± 0), the IL-4 in serum worked out at 0 ± 0 pg/mL. The same compound had an IL-2 in serum in the data set with mouse cytokines in serum (day 12 post MOG induced EAE, control 2 ± 2) of 0.7 ± 0.2 pg/mL. The same compound displayed an IL-5 in serum with mouse cytokines in serum (day 12 post MOG induced EAE, control 6 ± 5) of 2 ± 1 pg/mL. In the data set on mouse cytokines in serum (day 12 post MOG induced EAE, control 7 ± 4), this compound displayed a GM-CSF in serum of 0.4 ± 0.5 pg/mL. Besides, the IFN-g in serum in the data set on mouse cytokines in serum (day 12 post MOG induced EAE, control 10 ± 3) came to 3 ± 1 pg/mL. In addition, the IL-10 in serum with mouse cytokines in serum (day 12 post MOG induced EAE, control 16 ± 7) is on record as 3 ± 1 pg/mL. Moreover, the IL-17 in serum in the data set on mouse cytokines in serum (day 12 post MOG induced EAE, control 83 ± 29) worked out at 2 ± 0.2 pg/mL. In addition, the TNF-α in serum with mouse cytokines in serum (day 12 post MOG induced EAE, control 219 ± 132) was found to be 61 ± 46 pg/mL. In the data set on mouse cytokines in serum (day 12 post MOG induced EAE, control 559 ± 276), this compound registered an IL-12 in serum of 36 ± 14 pg/mL. Further, in the data set on mouse cytokines in serum (setting [6]), the “reduction for IL-12” value was determined as 15 fold, the “reduction for Il-10” value worked out at 5.0 fold, the “reduction for TNF levels” value came out at 3.5 fold and the “reduction in IL-17” value is recorded as “approximately 35 fold”. For the same compound, the “reduction in average clinical score” value in data set [2] is recorded as “more than 50%”. For the same compound, in data set [3] (setting [7]), the “Max. Score” value came out at 3 and the “Max. Score (mean +/− SEM)” value was 0.45 +/− 0.31. In data set [3] (control 78%), the “percentage of animals that exhibited any clinical symptom of the disease” value is 27%. In data set [3] (day 12, plateau of the clinical condition, control 1.9), this compound had a mean clinical score of 0.45. Further, the “onset of the disease” value in data set [3] (in the minority of animals in which it occurred, control 4.4 days) is 7.3 days. The “Day of Disease Onset” value in data set [3] (treated from day -2 before MOG booster) was 7.33 +/− 1.73. For the same compound, in data set [3], the “effect on EAE clinical symptoms (in words)” value is “reduced the severity and delayed the onset of the clinical manifestation of the disease”. Besides, the “decrease in the EAE clinical score” value with EAE mice is recorded as “two”. The nitrite production result in data set [4] (100 μM treatment) was “reached base line levels”. In addition, in data set [4] (increasing concentrations), the “nitrite production, dose dependence” value is “dose dependent attenuation of nitrite production”.
As to `NC(=O)NO` [hydroxyurea, reference compound], in data set [3], the “effect on EAE clinical symptoms (in words)” value is reported as “did not show evidence of treating neurodegenerative diseases”.
